Data set [1] concerns the target T1, Metabotropic glutamate receptor 7 (Homo sapiens, UniProt Q14831).
Data set [2] concerns the target Metabotropic glutamate receptor 7 (Rattus norvegicus, UniProt P35400). The experiment in a line: Negative allosteric modulation of rat mGlu7 in HEK cells expressing Galpha15 assessed as inhibition of L-AP4-induced response measured by calcium mobilization assay. Type of data set: functional, cell-based. Background: Calcium flux is commonly read through the fluorescence of an indicator in the cells.

Data set [3] deals with T1, Metabotropic glutamate receptor 7. This is another data set of the same source.
Data set [4] can be described thus: Ratio of drug level in brain to plasma in rat. Type of data set: ADME, cell-free.
Data set [5] in a line: Plasma protein binding in rat assessed as unbound fraction. The format is ADME, cell-free.
Data set [6] can be described thus: Drug concentration in rat brain assessed as unbound fraction. The format is ADME, tissue-based.
Setting [7] is: filed as negative allosteric modulator.

Chain of Metabotropic glutamate receptor 7 (Rattus norvegicus, UniProt P35400) (P35400 whole entry): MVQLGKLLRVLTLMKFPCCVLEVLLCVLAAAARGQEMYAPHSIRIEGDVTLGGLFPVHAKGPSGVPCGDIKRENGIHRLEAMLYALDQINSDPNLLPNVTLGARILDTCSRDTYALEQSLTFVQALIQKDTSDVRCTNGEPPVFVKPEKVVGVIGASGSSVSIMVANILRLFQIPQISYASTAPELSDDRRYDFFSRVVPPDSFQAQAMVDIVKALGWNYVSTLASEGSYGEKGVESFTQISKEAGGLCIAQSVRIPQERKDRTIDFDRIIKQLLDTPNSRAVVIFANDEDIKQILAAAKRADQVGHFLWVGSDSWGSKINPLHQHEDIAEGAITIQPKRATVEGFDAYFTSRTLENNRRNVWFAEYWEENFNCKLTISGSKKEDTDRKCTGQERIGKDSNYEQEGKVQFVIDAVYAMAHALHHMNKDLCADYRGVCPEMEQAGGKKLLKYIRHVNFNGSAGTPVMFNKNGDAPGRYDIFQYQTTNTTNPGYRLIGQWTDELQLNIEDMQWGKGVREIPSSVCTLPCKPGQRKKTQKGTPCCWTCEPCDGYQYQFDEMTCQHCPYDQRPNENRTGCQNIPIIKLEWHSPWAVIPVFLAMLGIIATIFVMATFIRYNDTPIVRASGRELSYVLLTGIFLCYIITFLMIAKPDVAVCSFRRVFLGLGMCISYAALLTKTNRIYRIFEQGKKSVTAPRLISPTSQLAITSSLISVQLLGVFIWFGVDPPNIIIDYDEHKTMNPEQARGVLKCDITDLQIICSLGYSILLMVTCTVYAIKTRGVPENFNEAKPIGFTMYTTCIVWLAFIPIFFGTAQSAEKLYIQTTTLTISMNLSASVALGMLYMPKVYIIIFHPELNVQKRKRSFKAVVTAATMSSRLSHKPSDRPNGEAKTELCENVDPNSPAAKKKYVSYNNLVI
T1 sequence (Q14831 whole entry): as the sequence (P35400 whole entry) above, with G5R, V27A, H454N, T488S, S520A, N578D counted along it

As for `COc1ccc(-c2nnc(-c3cc(OC(F)(F)F)ccc3-n3cncn3)o2)cc1OC`, the Emin in data set [1] (setting [7]) came to 60%. For the same compound, the IC50 stood at 2000 nM in data set [2] and 1.3 µM in data set [3].

`COc1cc(C(=O)Nc2cc(OC(F)(F)F)ccc2-n2cncn2)ccc1OCC1CC1`: in data set [4], the Kp was found to be 2.4.

As for `COc1ccc(-c2coc(-c3cc(OC(F)(F)F)ccc3-n3cncn3)n2)cc1OC`, in data set [1] (setting [7]), the Emin turned out to be 45%. Further, the IC50 in data set [2] was more than 10000 nM.

In data set [1] (setting [7]), `COc1ccc(-c2noc(-c3cc(Cl)ccc3-n3cncn3)n2)c(F)c1OC` registered an Emin of 59%. In addition, the IC50 in data set [2] was more than 30000 nM.

With `COc1cc(C(=O)Nc2cc(OC(F)(F)F)ccc2-n2cncn2)ccc1OC1CCC1`, in data set [1], the Emin was 19%. Besides, the concentration for half-maximal inhibition (IC50) came to 1000 nM in data set [2] and 3.1 µM in data set [3].

Consider `COc1ccc(-c2noc(-c3cc(Cl)cc(F)c3-n3cncn3)n2)c(F)c1OC`, for which the Emin in data set [1] (setting [7]) was found to be 69%. Moreover, the IC50 in data set [2] amounted to 1000 nM.

For the compound `CCOC(=O)c1cnc2c(OC)cccc2c1-c1ccc(-c2cc(F)cnc2OC)nc1`, the Emin in data set [1] amounted to 22.4%. Further, the figures for the IC50 in data set [2] and in data set [3] were 2400 nM and 4.57 µM, respectively.

For the compound `COc1ccc(-c2nnc(-c3cc(OC(F)(F)F)ccc3-n3ccnc3)o2)cc1OC`, in data set [1], the Emin was found to be 0%. In addition, the IC50 in data set [3] worked out at 3 µM. Moreover, the Kp in data set [4] was 4.9.

As for `COc1ccc(-c2nnc(-c3cc(Cl)ccc3-c3ccnn3C)o2)cc1OC`, the Fu in data set [5] is on record as 3.9%. In addition, the fraction unbound in data set [6] was 0.009.

`COc1ccc(-c2nnc(-c3cc(OC(F)(F)F)ccc3-c3cn[nH]c3)o2)cc1OC` gave an Emin in data set [1] of 26%. The IC50 came to 2000 nM in data set [2] and 5.4 µM in data set [3].

In the case of `COc1ccc(-c2noc(-c3cc(Cl)c(F)cc3-n3cncn3)n2)cc1OC`, the Emin in data set [1] (setting [7]) is 74%. Also, the IC50 in data set [2] was more than 30000 nM.

As for `COc1cc(OCC(=O)Nc2cc(OC(F)(F)F)ccc2-n2cncn2)ccc1OC1COC1`, the Emin in data set [1] stood at 21.1%. For the same compound, the IC50 was determined as 263 nM in data set [2] and 0.819 µM in data set [3].

Broadly, the IC50 is the concentration that inhibits the measured activity by half. As a reminder, the Kp is tissue or fluid exposure divided by exposure in the circulation. Usually fraction unbound stands for free concentration divided by total concentration.

Values taken from ChEMBL document CHEMBL5104167, “Development and profiling of mGlu7 NAMs with a range of saturable inhibition of agonist responses in vitro” (Bioorg Med Chem Lett, 2022).
